The test system of test [1] is L. (L.) infantum chagasi promastigotes. Kind of test: Transmission electron microscopy of treated promastigotes. Conditions: 10 μM, 72 h. In kind it is cell-based, Leishmania (L.) infantum chagasi. An excerpt: The cells were washed with Milli Q water, dehydrated in increasing concentration of acetone and embedded in Epon (1: 1) (PolyBed 812). The ultrathin sections were obtained, contrasted with 5% uranyl acetate and lead citrate and observed under a Joel 1200 electron microscope.

Test [2] deals with intracellular amastigotes of L. (L.) infantum chagasi. Kind of test: Replication of intracellular amastigotes in infected peritoneal macrophages (phagocytic index). Format: cell-based, Leishmania (L.) infantum chagasi. As to the method: […] […] The amastigote growth was assessed 24 h after the last drug addition, on 200 cells in Giemsa stained coverslips and expressed as phagocytic index = percent of infected macrophages x average number of intracellular amastigotes. […] All experiments with mice were reviewed and approved by the Animal Care and Use Committee of the Instituto de Biofísica Carlos Chagas Fo.-UFRJ (CAUAP-CONCEA, Brazil, IMPPG-016) and were performed according to the guidelines of the National Institutes of Health, USA. We made all efforts in order to minimize animal suffering.

The EC50 is the concentration at which the effect is half-maximal. For the molecule `Nc1ncnc2c(C3N[C@H](CO)[C@@H](O)[C@H]3O)c[nH]c12` (some centres unmarked) [IA], the “effect on cellular ultrastructure of promastigotes” value in test [1] was “global alterations on their cellular morphology”. Besides, the “reduction in the number of intracellular amastigotes” value is listed as 95% in test [2] (10 μM added daily at 0, 24 and 48 h); 74% in test [2] (single 10 μM dose at 0 h, compared to untreated controls). In addition, the half-maximal effective concentration (EC50) in test [2] (Leishmania infantum, Peritoneal macrophage, drugs (0.5–10 μM) added at 0 h, incubation 24 h, linear interpolation, read-out: EC50 (CI 95%)) was found to be 2390 nM. The “decrease of intracellular amastigote parasite load” value in test [2] (low micromolar concentrations, single to daily protocol) was 74–95%.

Values taken from PMC4409337, “Immucillins Impair Leishmania (L.) infantum chagasi and Leishmania (L.) amazonensis Multiplication In Vitro” (PLoS ONE, 2015).
